Measured values from patent publication US20060063736A1, “Compositions and methods for inhibiting mucin-type O-linked glycosylation” (priority 2004, published 2006).

What was measured:
[1] = system: UDP-galactopyranose mutase; conditions: Scherman et al. (2003); cited from earlier work
rppGalNAcT-5 = target: T1, rppGalNAcT-5 (Rattus norvegicus, UniProt O88422); assay: Radiolabel capture assay, rppGalNAcT-5; format: biochemical; conditions: α-FLAG purified enzyme
T1 construct: plasmids encoding truncated secreted ppGalNAcTs-1 to −5, -7, -10 and -11; FLAG; made in house; host or cells: COS-7
T1 sequence (O88422 36-930 limits assumed): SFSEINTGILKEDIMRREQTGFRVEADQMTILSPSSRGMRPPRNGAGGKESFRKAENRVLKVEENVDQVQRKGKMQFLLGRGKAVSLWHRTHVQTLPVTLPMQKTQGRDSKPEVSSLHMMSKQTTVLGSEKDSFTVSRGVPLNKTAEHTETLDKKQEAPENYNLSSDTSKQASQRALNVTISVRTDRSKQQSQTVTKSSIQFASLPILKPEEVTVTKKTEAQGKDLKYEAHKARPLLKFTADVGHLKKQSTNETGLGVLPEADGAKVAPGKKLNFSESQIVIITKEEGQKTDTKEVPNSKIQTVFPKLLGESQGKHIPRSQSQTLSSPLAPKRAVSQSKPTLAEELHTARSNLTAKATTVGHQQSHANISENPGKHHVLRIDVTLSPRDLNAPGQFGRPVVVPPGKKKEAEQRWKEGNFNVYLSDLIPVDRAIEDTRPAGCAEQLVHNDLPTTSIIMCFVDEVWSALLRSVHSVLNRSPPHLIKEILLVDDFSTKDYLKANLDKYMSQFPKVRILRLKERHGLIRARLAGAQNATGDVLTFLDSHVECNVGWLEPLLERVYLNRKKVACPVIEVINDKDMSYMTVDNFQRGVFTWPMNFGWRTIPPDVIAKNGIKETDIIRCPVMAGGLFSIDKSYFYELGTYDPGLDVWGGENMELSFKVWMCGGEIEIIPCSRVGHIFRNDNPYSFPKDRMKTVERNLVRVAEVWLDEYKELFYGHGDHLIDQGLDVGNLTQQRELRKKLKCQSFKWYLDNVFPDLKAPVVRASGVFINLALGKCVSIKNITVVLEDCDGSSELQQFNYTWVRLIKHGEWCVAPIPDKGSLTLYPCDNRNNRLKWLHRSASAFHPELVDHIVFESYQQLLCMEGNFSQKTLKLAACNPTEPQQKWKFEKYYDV
Protocol: Radiolabel capture assays using ^14C-labeled UDP-GalNAc were performed as previously described with various concentrations of 1-68A or 2-68A in 2% DMSO. Ten Hagen et al. (2001) J. Biol. Chem. 276:17395-17404.
Table 1. IC50 values for 1-68A and 2-68A with ppGalNAcTs-1 to −5, -7, -10, -11, β1-4GalT and α1-3GalT. The requirement of glycopeptides as substrates for ppGalNAcT-7 and -10 precluded the use of the ELLA, as both the substrate and product bind HPA-HRP. Thus, the radiolabel capture assay was employed to measure the IC50 values of 1-68A and 2-68A with ppGalNAcT-7 and -10 using MUC5AC (GTTPSPVPTTSTTSAP; SEQ ID NO:15) glycopeptide, previously shown to be substrate for both enzymes. Ten Hagen et al. (1999) J. Biol. Chem. 274:27867-27874; and Ten Hagen et al. (2001) J. Biol. Chem. 276:17395-17404. IC50 values of 1-68A and 2-68A with ppGalNAcT-5 were performed with α-FLAG purified enzyme and radiolabel capture assay, due to low activity and stability of the crude enzyme. m=murine, r=rattus.

[2] = target: T2, UDP-GlcNAc/GalNAc C4-epimerase (Homo sapiens, UniProt Q14376); conditions: Winans and Bertozzi (2002); cited from earlier work
T2 sequence (Q14376 1-348): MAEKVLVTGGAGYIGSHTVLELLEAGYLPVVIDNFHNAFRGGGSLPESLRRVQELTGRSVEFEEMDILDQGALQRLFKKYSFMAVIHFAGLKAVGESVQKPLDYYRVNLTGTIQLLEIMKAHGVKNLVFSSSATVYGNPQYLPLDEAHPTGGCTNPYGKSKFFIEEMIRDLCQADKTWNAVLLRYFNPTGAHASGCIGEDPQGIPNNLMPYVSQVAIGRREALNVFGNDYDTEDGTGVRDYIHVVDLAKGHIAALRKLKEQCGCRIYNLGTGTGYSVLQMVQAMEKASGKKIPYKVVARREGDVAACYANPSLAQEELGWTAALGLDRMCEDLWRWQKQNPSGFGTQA

Jurkat cells = assay: Con A staining of N-linked glycans on Jurkat cells, flow cytometry; format: cell-based, human; conditions: 2 d treatment
Protocol: Jurkat cells were seeded at 250,000 cells/well (determined by Coulter cell counter) in 12-well polystyrene tissue culture plates in 1.0 mL of media and treated with various concentrations of 1-68A or 2-68A from 50 mM dimethyl sulfoxide (DMSO) stock solutions or doxorubicin or campothecin from 1 mM DMSO stock solutions. After 2 d, cells were harvested, washed twice with PBS buffer (PBS, pH 7.4, 0.1% FCS, 0.1% NaN3 w/v) and stained with FITC-HPA (1 μg/mL) or FITC-Con A (5 μg/mL with 1 mM CaCl2) in PBS, pH 7.4 in the dark for 1 h at 4° C. Cells were washed twice with PBS buffer, resuspended in 300 μL of PBS buffer and analyzed by flow cytometry (FacsCaliber, BD Instruments). Annexin-V staining was performed according to the manufacturer's protocols (Invitrogen).
To directly monitor ppGalNAcT activities in cells, Jurkat cells (human T-cell lymphoma), which are known to produce only the Tn-antigen (FIG. 1) as their O-linked glycans, were chosen. Piller et al. (1990) J. Biol. Chem. 265:9264-9271. Changes in Tn-antigen expression on the surface of Jurkat cells were monitored by HPA binding followed by flow cytometry analysis. Con A staining of N-linked glycans was used as a control for non-specific inhibition of protein glycosylation. Baenziger and Fiete (1979) J. Biol. Chem. 254:2400-2407.

| Structure (SMILES) | identified in library screen against UDP-galactopyranose mutase [1] | IC50 (rppGalNAcT-5) | identified in library screen against UDP-GlcNAc/GalNAc C4-epimerase [2] | effect on Con A staining (Jurkat cells) |
| --- | --- | --- | --- | --- |
| O=c1ccn([C@@H]2O[C@H](CON=Cc3ccc(O)c(O)c3O)[C@@H](O)[C@H]2O)c(=O)[nH]1 [1-68A] | not identified | 20 ± 2 µM | not identified | no significant effect |
| O=C(CON=Cc1ccc(O)c(O)c1O)NC[C@H]1O[C@@H](n2ccc(=O)[nH]c2=O)[C@H](O)[C@@H]1O [2-68A] | not identified | 26 ± 9 µM | not identified | no significant effect |
